Like-named read-outs stand apart in the source and are kept apart here.
Columns and labels:
[1] = system: non-expressing oocytes; assay: cells; type: cell-based, Xenopus laevis; settings: Xenopus laevis, total [3H]CQ transport; for inhibition at 500 µM: [test solute] = 0.5 mM; for inhibition at 1000 µM: [test solute] = 1 mM; for inhibition at 2000 µM: [test solute] = 2 mM
Method in brief: (§1)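 Assay buffer ND96 (10 mM MES, 10 mM Tris-base) held at pH 5.5 to mimic vacuole lumen; uptake measured inward from this acidic medium over 1.5 h at 27.5 °C.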

[2] = target: T1, PfCRT^3D7 (Plasmodium falciparum, UniProt Q8IBZ9); assay: cell-based; type: cell-based; settings: total [3H]CQ transport; for inhibition at 500 µM: [test solute] = 0.5 mM; for inhibition at 1000 µM: [test solute] = 1 mM; for inhibition at 2000 µM: [test solute] = 2 mM
T1 sequence (Q8IBZ9 59-398): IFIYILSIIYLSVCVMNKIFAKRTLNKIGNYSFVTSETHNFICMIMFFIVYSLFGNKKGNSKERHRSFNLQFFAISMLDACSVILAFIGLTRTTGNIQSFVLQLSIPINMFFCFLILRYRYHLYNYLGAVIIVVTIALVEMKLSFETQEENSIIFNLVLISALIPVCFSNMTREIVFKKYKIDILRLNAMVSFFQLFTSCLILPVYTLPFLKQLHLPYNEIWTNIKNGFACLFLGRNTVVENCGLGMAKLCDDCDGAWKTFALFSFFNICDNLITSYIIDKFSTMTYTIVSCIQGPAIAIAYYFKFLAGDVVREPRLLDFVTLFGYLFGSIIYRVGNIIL
Method in brief: as §1

[3] = target: T2, PfCRT^Dd2 (Plasmodium falciparum, UniProt Q9N623, A220S/I356T/K76T/M74I/N326S/N75E/Q271E/R371I); assay: [3H]CQ uptake into Xenopus oocytes, cis-inhibition by unlabelled solute; type: cell-based
T2 sequence (Q9N623 whole entry A220S/I356T/K76T/M74I/N326S/N75E/Q271E/R371I): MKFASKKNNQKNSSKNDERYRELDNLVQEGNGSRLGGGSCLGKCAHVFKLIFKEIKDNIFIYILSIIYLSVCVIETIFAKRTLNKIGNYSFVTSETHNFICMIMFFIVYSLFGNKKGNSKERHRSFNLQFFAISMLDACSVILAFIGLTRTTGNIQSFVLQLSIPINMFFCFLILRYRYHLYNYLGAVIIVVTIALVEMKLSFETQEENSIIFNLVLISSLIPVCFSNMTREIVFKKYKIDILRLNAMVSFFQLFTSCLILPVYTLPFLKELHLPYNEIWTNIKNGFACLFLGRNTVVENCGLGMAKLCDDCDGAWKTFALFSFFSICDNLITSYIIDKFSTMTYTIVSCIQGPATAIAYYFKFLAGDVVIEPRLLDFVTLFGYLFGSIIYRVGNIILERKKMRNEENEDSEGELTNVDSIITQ
Method in brief: as §1

[4] = target: T3, PfCRT^Ecu1110 (Plasmodium falciparum, UniProt Q9N623, A220S/I356L/K76T/N326D); assay: as above; type: cell-based
T3 sequence (Q9N623 whole entry A220S/I356L/K76T/N326D): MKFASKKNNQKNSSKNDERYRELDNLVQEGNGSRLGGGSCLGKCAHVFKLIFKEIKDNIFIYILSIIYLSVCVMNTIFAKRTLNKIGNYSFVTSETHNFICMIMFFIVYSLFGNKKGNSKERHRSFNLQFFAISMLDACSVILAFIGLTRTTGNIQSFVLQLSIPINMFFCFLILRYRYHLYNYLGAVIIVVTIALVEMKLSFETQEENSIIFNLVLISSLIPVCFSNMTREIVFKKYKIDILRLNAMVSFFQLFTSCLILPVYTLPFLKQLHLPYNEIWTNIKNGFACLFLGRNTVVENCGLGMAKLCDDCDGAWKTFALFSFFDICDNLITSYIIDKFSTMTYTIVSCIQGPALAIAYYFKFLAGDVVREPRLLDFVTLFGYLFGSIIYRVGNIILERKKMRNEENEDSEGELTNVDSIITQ
Method in brief: as §1

[5] = system: non-expressing oocytes; type: cell-based, Xenopus laevis; settings: total [3H]CQ transport; for Uptake of [3H]CQ (% non-expressing oocyte control), trans-stimulation: non-expressing oocytes, normalised to the oocyte type control; for Uptake of [3H]CQ (% PfCRTDd2 control), trans-stimulation, non-expressing oocytes: mean ± SEM, SEM
Method in brief: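 Oocytes (ten per treatment, ≥4 independent frogs/days) were preloaded by injecting VF-6 in 25 nL ND96 at pH 5.0, 5.5, 6.0 or 7.0, or Na^+-free choline buffer, then uptake run 1.5 h, 27.5 °C, ND96 pH 5.5 by default. Internal concentrations assumed ~400 nL oocyte volume.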

[6] = target: T1, PfCRT^3D7; assay: cell-based; type: cell-based
Method in brief: (§2)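 Transport measured in Xenopus oocytes expressing the transporters, 1.5 h at 27.5 °C in ND96 pH 5.5 unless noted. For trans-stimulation, VF-6 injected in 25 nL ND96 at pH 5.0–7.0 or Na^+-free (choline) buffer; intracellular levels based on ~400 nL oocyte volume. Ten oocytes per treatment, ≥4 experiments.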

[7] = target: T2, PfCRT^Dd2; assay: cell-based; type: cell-based; settings: […]; for activity at 45000 µM: [test solute]i = 45 mM (30 mM for some solutes due to solubility)
Method in brief: as §2

[8] = target: T3, PfCRT^Ecu1110; assay: cell-based; type: cell-based; settings: […]
Method in brief: as §2

[9] = target: T4, PfNT1 (Plasmodium falciparum, UniProt Q8IDM6); assay: cell-based; type: cell-based; settings: for activity at 5000 µM: total [3H]CQ transport
T4 construct: expressed in transfected cells; host or cells: Xenopus laevis oocytes (stage V-VI), cRNA-injected
T4 sequence (Q8IDM6 whole entry): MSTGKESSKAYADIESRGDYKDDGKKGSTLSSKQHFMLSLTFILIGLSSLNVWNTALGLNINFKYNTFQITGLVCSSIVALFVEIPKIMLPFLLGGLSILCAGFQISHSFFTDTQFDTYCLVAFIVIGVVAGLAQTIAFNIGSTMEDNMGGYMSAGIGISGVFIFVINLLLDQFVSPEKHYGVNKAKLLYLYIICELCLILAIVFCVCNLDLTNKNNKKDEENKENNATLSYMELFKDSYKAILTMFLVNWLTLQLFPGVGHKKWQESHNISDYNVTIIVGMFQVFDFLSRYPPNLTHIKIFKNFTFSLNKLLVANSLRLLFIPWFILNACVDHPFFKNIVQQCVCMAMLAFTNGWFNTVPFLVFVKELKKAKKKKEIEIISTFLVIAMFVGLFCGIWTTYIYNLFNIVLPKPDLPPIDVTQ
Method in brief: as §2

[10] = system: PfCRT; assay: Influx of VF-6 via PfCRT into the oocyte, solutes tested as potential co-substrates; type: cell-based, Plasmodium falciparum; design: key: X: Compounds that have been tested as potential co-substrates but are not required for influx of VF-6 via PfCRT into the oocyte; settings: X marks the solute
[11] = system: PfCRT; assay: Potential co-substrates tested for influx of VF-6 via PfCRT into the oocyte; type: cell-based, Plasmodium falciparum; design: key: X: Compounds that have been tested as potential co-substrates but are not required for influx of VF-6 via PfCRT into the oocyte
[12] = Oocyte, mean ± SEM, SEM, read-out: Uptake of [3H]CQ (% PfCRTDd2 control), cis-inhibition, non-expressing oocytes
[13] = non-expressing oocytes, normalised to the oocyte type control, read-out: Uptake of [3H]CQ (% non-expressing oocyte control), cis-inhibition
[14] = PfCRT3D7 oocytes, normalised to the oocyte type control, read-out: Uptake of [3H]CQ (% PfCRT3D7 control), cis-inhibition
[15] = mean ± SEM, SEM, read-out: Uptake of [3H]CQ (% PfCRTDd2 control), cis-inhibition, PfCRT3D7
[16] = read-out: PfCRT-mediated [3H]CQ transport, cis-inhibition (% PfCRTDd2 control)
[17] = read-out: Uptake of [3H]CQ (% PfCRTDd2 control), cis-inhibition
[18] = read-out: Uptake of [3H]CQ (% PfCRTDd2 control), cis-inhibition, PfCRTDd2, SEM
[19] = read-out: [3H]CQ transport (% PfCRTDd2 control), cis-inhibition, PfCRTDd2, SEM
[20] = read-out: PfCRT-mediated [3H]CQ transport, cis-inhibition (% PfCRTEcu1110 control)
[21] = read-out: Uptake of [3H]CQ (% PfCRTDd2 control), cis-inhibition, PfCRTEcu1110, SEM
[22] = read-out: Uptake of [3H]CQ (% PfCRTEcu1110 control), cis-inhibition
[23] = read-out: [3H]CQ transport (% PfCRTEcu1110 control), cis-inhibition, PfCRTEcu1110, SEM

Structure (SMILES): CC(C)C[C@H](N)C(=O)O [L-leucine]
- inhibition at 500 µM [1, 12]: 3.2 ± 0.08%
- inhibition at 1000 µM [1, 12]: 2.8 ± 0.07%
- inhibition at 2000 µM [1, 12]: 2.9 ± 0.04%
- inhibition at 500 µM [1, 13]: 100 ± 3.7%
- inhibition at 1000 µM [1, 13]: 99 ± 4.6%
- inhibition at 2000 µM [1, 13]: 99 ± 5.7%
- inhibition at 500 µM [2, 14]: 98 ± 3.6%
- inhibition at 1000 µM [2, 14]: 100 ± 4.7%
- inhibition at 2000 µM [2, 14]: 99 ± 3.6%
- inhibition at 500 µM [2, 15]: 3.2 ± 0.08%
- inhibition at 1000 µM [2, 15]: 3.1 ± 0.08%
- inhibition at 2000 µM [2, 15]: 3.8 ± 0.05%
- inhibition at 500 µM [3, 16]: 98 ± 4.7%
- inhibition at 1000 µM [3, 16]: 96 ± 4.2%
- inhibition at 2000 µM [3, 16]: 98 ± 4.7%
- inhibition at 500 µM [3, 17]: 100 ± 3.8%
- inhibition at 1000 µM [3, 17]: 98 ± 3.1%
- inhibition at 2000 µM [3, 17]: 100 ± 1.9%
- inhibition at 500 µM [3, 18]: 100 ± 3.8%
- inhibition at 1000 µM [3, 18]: 98 ± 3.1%
- inhibition at 2000 µM [3, 18]: 100 ± 1.9%
- inhibition at 500 µM [3, 19]: 98 ± 4.7%
- inhibition at 2000 µM [3, 19]: 98 ± 4.7%
- inhibition at 500 µM [4, 20]: 99 ± 5.1%
- inhibition at 1000 µM [4, 20]: 97 ± 3.1%
- inhibition at 2000 µM [4, 20]: 99 ± 2.1%
- inhibition at 500 µM [4, 21]: 33 ± 1.6%
- inhibition at 1000 µM [4, 21]: 32 ± 1.3%
- inhibition at 2000 µM [4, 21]: 33 ± 1.5%
- inhibition at 500 µM [4, 22]: 102 ± 4.2%
- inhibition at 1000 µM [4, 22]: 98 ± 4.2%
- inhibition at 2000 µM [4, 22]: 100 ± 3.2%
- inhibition at 500 µM [4, 23]: 30 ± 1.5%
- inhibition at 1000 µM [4, 23]: 29 ± 0.6%
- inhibition at 2000 µM [4, 23]: 30 ± 0.7%
- Uptake of [3H]CQ (% non-expressing oocyte control), trans-stimulation ([5]; [test solute]i = 5 mM): 100 ± 3.2 % non-expressing oocyte control
- Uptake of [3H]CQ (% non-expressing oocyte control), trans-stimulation ([5]; [test solute]i = 45 mM (30 mM for some solutes due to solubility)): 100 ± 3.3 % non-expressing oocyte control
- Uptake of [3H]CQ (% PfCRTDd2 control), trans-stimulation, non-expressing oocytes ([5]; [test solute]i = 5 mM (intracellular)): 3.2 ± 0.08 % PfCRTDd2 control
- Uptake of [3H]CQ (% PfCRTDd2 control), trans-stimulation, non-expressing oocytes ([5]; [test solute]i = 45 mM (intracellular; 30 mM for some solutes due to solubility)): 3.2 ± 0.05 % PfCRTDd2 control
- activity at 5000 µM ([6]; PfCRT3D7 oocytes, [test solute]i = 5 mM, total [3H]CQ transport, normalised to the oocyte type control, read-out: Uptake of [3H]CQ (% PfCRT3D7 control), trans-stimulation): 100 ± 2.4%
- [3H]CQ transport (% PfCRT3D7 control), trans-stimulation, PfCRT3D7 ([6]; SEM): 0.3 ± 0.02 % PfCRT3D7 control
- activity at 5000 µM ([6]; [test solute]i = 5 mM (intracellular), PfCRT3D7 oocytes, normalised to oocyte type control, read-out: PfCRT-mediated [3H]CQ transport, trans-stimulation (% PfCRT3D7 control)): 98 ± 3.4%
- activity at 45000 µM ([6]; SEM, read-out: Uptake of [3H]CQ (% PfCRTDd2 control), trans-stimulation, PfCRT3D7): 3.2 ± 0.04%
- activity at 45000 µM ([6]; read-out: PfCRT-mediated [3H]CQ transport, trans-stimulation (% PfCRT3D7 control)): 95 ± 4.1%
- activity at 45000 µM ([6]; read-out: Uptake of [3H]CQ (% PfCRT3D7 control), trans-stimulation): 97 ± 2.8%
- activity at 5000 µM ([6]; total [3H]CQ transport, [test solute]i = 5 mM (intracellular), mean ± SEM, SEM, read-out: Uptake of [3H]CQ (% PfCRTDd2 control), trans-stimulation, PfCRT3D7): 3.3 ± 0.03%
- activity at 5000 µM ([7]; pH 5.5, read-out: PfCRT-mediated [3H]CQ transport, trans-stimulation (% PfCRTDd2 control), [test solute]i = 5 mM (intracellular), PfCRTDd2 oocytes, normalised to oocyte type control): 95 ± 3.4%
- activity at 5000 µM ([7]; pH 5.5, read-out: Uptake of [3H]CQ (% PfCRTDd2 control), trans-stimulation, PfCRTDd2, total [3H]CQ transport, [test solute]i = 5 mM (intracellular), mean ± SEM, SEM): 97 ± 0.7%
- activity at 5000 µM ([7]; pH 5.5, read-out: Uptake of [3H]CQ (% PfCRTDd2 control), trans-stimulation, PfCRTDd2 oocytes, [test solute]i = 5 mM, total [3H]CQ transport, normalised to the oocyte type control): 97 ± 0.7%
- activity at 45000 µM ([7]; pH 5.5, read-out: Uptake of [3H]CQ (% PfCRTDd2 control), trans-stimulation, PfCRTDd2 oocytes, total [3H]CQ transport, normalised to the oocyte type control): 98 ± 2.2%
- activity at 5000 µM ([7]; pH 5.5, read-out: [3H]CQ transport (% PfCRTDd2 control), trans-stimulation, PfCRTDd2, trans-stimulation, [test solute]i = 5 mM (injected), PfCRT-mediated component (background subtracted), mean ± SEM, SEM): 95 ± 3.4%
- activity at 45000 µM ([7]; pH 5.5, read-out: [3H]CQ transport (% PfCRTDd2 control), trans-stimulation, PfCRTDd2, trans-stimulation, PfCRT-mediated component (background subtracted), mean ± SEM, SEM): 96 ± 2.9%
- activity at 5000 µM ([8]; pH 5.5, read-out: PfCRT-mediated [3H]CQ transport, trans-stimulation (% PfCRTEcu1110 control), [test solute]i = 5 mM (intracellular), PfCRTEcu1110 oocytes, normalised to oocyte type control): 96 ± 2.6%
- activity at 5000 µM ([8]; pH 5.5, read-out: Uptake of [3H]CQ (% PfCRTEcu1110 control), trans-stimulation, PfCRTEcu1110 oocytes, [test solute]i = 5 mM, total [3H]CQ transport, normalised to the oocyte type control): 98 ± 3.2%
- activity at 45000 µM ([8]; pH 5.5, read-out: Uptake of [3H]CQ (% PfCRTEcu1110 control), trans-stimulation, PfCRTEcu1110 oocytes, [test solute]i = 45 mM (30 mM for some solutes due to solubility), total [3H]CQ transport, normalised to the oocyte type control): 100 ± 3.5%
- activity at 5000 µM ([8]; read-out: Uptake of [3H]CQ (% PfCRTDd2 control), trans-stimulation, PfCRTEcu1110, total [3H]CQ transport, [test solute]i = 5 mM (intracellular), mean ± SEM, SEM): 35 ± 1.3%
- activity at 45000 µM ([8]; read-out: Uptake of [3H]CQ (% PfCRTDd2 control), trans-stimulation, PfCRTEcu1110, total [3H]CQ transport, [test solute]i = 45 mM (intracellular; 30 mM for some solutes due to solubility), mean ± SEM, SEM): 36 ± 1.7%
- activity at 5000 µM ([9]; PfNT1 oocytes, [test solute]i = 5 mM, normalised to the oocyte type control, read-out: Uptake of [3H]CQ (% PfNT1 control), trans-stimulation): 100 ± 3.8%
- activity at 45000 µM ([9]; SEM, read-out: Uptake of [3H]CQ (% PfCRTDd2 control), trans-stimulation, PfNT1): 2.3 ± 0.09%
- activity at 45000 µM ([9]; read-out: Uptake of [3H]CQ (% PfNT1 control), trans-stimulation): 98 ± 3.3%
- activity at 5000 µM ([9]; [test solute]i = 5 mM (intracellular), mean ± SEM, SEM, read-out: Uptake of [3H]CQ (% PfCRTDd2 control), trans-stimulation, PfNT1): 3%
- Compounds that have been tested as potential co-substrates but are not required for influx of VF-6 via PfCRT into the oocyte [10]: X
- Tested as potential co-substrate but not required for influx of VF-6 via PfCRT into the oocyte [11]: X
